The values below come from the OPERA property sets (Mansouri et al. 2018).

SMILES strings stand for the structures.

Details in the first data set: not given
One may read the boiling point as the temperature of boiling at a given pressure. What is called melting point is the temperature of the solid-liquid transition. With `CC(C)(C)c1ccc(C(C)(C)C)cc1`, the boiling point was determined as 238 °C and the melting point stood at 79.5 °C. `CCOP(=S)(OCC)Oc1ccc(=O)n(-c2ccccc2)n1` displayed a log10 vapour pressure (mmHg) of -7.96 and a melting point of 55 °C. Take `OCC(O)COc1ccc(Cl)cc1` (configuration not stated): the melting point stood at 78 °C. `Cc1ccc2sc(C)nc2c1` showed a melting point of 38 °C.

`O=C(O)COc1nn(Cc2ccccc2)c2ccccc12` returned a melting point of 160 °C. With `O=C(NNc1ccccc1)c1ccccc1`, the boiling point was 314 °C and the melting point came to 168 °C. For the compound `Oc1c(Cl)cccc1-c1ccccc1`, the melting point came out at 6 °C. Compound `C=CC[Si](Cl)(Cl)CC=C` yielded a log10 vapour pressure (mmHg) of 0.445.

Regarding `COC(OC)(OC)OC`, the boiling point turned out to be 114 °C and the melting point was -5 °C.

For the compound `C=CCSSSC`, the log10 vapour pressure (mmHg) was -1.3.

Take `C=C(Cl)CC`: the boiling point worked out at 58.5 °C. As for `CC(=O)c1ccccn1`, the boiling point worked out at 192 °C. The compound `CC(C)(C#N)O[C@@H]1O[C@H](CO)[C@@H](O)[C@H](O)[C@H]1O` came in with a melting point of 145 °C. Compound `COCC(C)=O` returned a boiling point of 116 °C. `CSCSC` registered a boiling point of 148 °C. Compound `Cc1ccc2c(Cl)cc(Cl)c(O)c2n1` returned a melting point of 114 °C. Still for that read-out and setting: the same measure for `O=C(O)/C=C/Cl`: 82 °C. In the case of `N#CSCc1ccccc1`, the boiling point stood at 232 °C and the melting point is 43 °C.

`C1CN2CCC1CC2` came in with a log10 vapour pressure (mmHg) of 0.282 and a melting point of 158 °C. Turning to `C#C[C@]1(O)CC[C@H]2[C@@H]3CCC4=CCCC[C@@H]4[C@H]3C(=C)C[C@@]21CC`, the melting point came to 110 °C.

`CCCCCCCCCCCCCN` displayed a boiling point of 276 °C and a melting point of 27.4 °C. For `CN(C)S(=O)(=O)N(SC(F)(Cl)Cl)c1ccccc1`, the log10 vapour pressure (mmHg) was -6.95, the melting point turned out to be 106 °C and the ready biodegradability result is listed as “not readily biodegradable”. Compound `CCCCC#CCCCCC` registered a boiling point of 198 °C and a melting point of -74.1 °C. In turn, `COC(=O)CCCBr` gave a boiling point of 186 °C. For the compound `ClC(Cl)C(Cl)C(Cl)Cl`, the boiling point amounted to 199 °C, the log10 vapour pressure (mmHg) was -0.0278, the melting point is -10 °C and the ready biodegradability entry is given as “not readily biodegradable”.

In the case of `Cc1ccc(Oc2ccc(C)cc2)cc1`, the boiling point was 285 °C and the melting point was 51 °C. In the case of `C=CCOC(=O)CCC`, the boiling point is 142 °C and the melting point is -80 °C. As to `FC(F)(F)c1ccc(Br)cc1`, the boiling point is 160 °C. In turn, `COc1cccc(O)c1` had a boiling point of 244 °C, a log10 Henry constant (atm·m³/mol) of -7.24, a log10 Koc (L/kg) of 1.5 and a log10 vapour pressure (mmHg) of -1.71. Moreover, the ready biodegradability entry is reported as “readily biodegradable”. With `CCOC(=O)C1(c2cccc(O)c2)CCN(C)CC1`, the melting point was found to be 110 °C. `CCCCCCCCCCCCCCCCCCC(=O)O` showed a boiling point of 300 °C and a melting point of 69.4 °C.

Compound `CCN(CC)CN(CC)CC` gave a boiling point of 166 °C.

As for `CCCCNC(=O)NS(=O)(=O)c1ccc(N)cc1`, the melting point worked out at 144 °C.

`Cc1ccc2nc3c(ccc4ccccc43)c(C)c2c1` gave a melting point of 159 °C. `O=c1c(O)c(-c2ccc(O)cc2O)oc2cc(O)cc(O)c12`: the melting point amounted to 304 °C. `CCSc1cccc(C)c1` gave a boiling point of 219 °C. Regarding `CCOP(=S)(OCC)Oc1ccc(SC)cc1`, the log10 Koc (L/kg) was 3.18. Compound `CSC(C)C` registered a boiling point of 84.8 °C, a log10 vapour pressure (mmHg) of 1.9 and a melting point of -102 °C. `CCOC(=O)C1CCCC1=O` (configuration not stated) came in with a boiling point of 221 °C. As to `Cc1c(Br)cc(Br)c(O)c1Br`, the melting point stood at 84 °C.

Take `Nc1ccc(/N=N/c2ccc(N)cc2)cc1`: the melting point turned out to be 250 °C. Compound `C=CC=C(C)C` gave a boiling point of 76.5 °C. The compound `CCCCCCCCOC(=O)c1cc(O)c(O)c(O)c1` had a melting point of 102 °C. Regarding `CCCCOC(=O)c1ccccc1`, the boiling point came to 250 °C, the log10 Koc (L/kg) was 2.1, the log10 vapour pressure (mmHg) was -2 and the melting point was -22.4 °C. On to `O=C(O)COc1cc(Cl)c(Cl)cc1Cl`, for which the log10 Koc (L/kg) is 1.99 and the melting point stood at 153 °C. `CC(=O)Oc1ccc(C2(c3ccc(OC(C)=O)cc3)Oc3ccccc3NC2=O)cc1` yielded a melting point of 190 °C. Compound `C=C(C)c1ccc(C(C)(C)N=C=O)cc1` showed a log10 vapour pressure (mmHg) of -2.33. On to `CCNc1nc(Cl)nc(NC(C)(C)C)n1`, for which the log10 Koc (L/kg) came to 2.32, the log10 vapour pressure (mmHg) was -5.95 and the melting point was found to be 178 °C. For `CCCCCCCC/C=C\CCCCCCCCO`, the ready biodegradability entry was “readily biodegradable”. In turn, `CC1CNCC(C)C1` (configuration not stated) registered a boiling point of 144 °C. Regarding `C=CCC#N`, the boiling point stood at 119 °C, the log10 vapour pressure (mmHg) was determined as 1.27 and the melting point was -87 °C. `O=C(O)C1CCCN1` (racemic): the melting point turned out to be 205 °C. Regarding `CC1CNC(C)CN1` (configuration not stated), the boiling point is 163 °C, the log10 vapour pressure (mmHg) stood at 0.422 and the melting point turned out to be 116 °C. In the case of `O=c1ccoc2ccccc12`, the melting point is 59 °C. As for `CCNC(=O)COC(=O)c1ccccc1`, the melting point worked out at 106 °C. The same measure, in the same setting: the same measure for `C#C[C@]1(O)CC[C@H]2[C@@H]3CCc4cc(O)ccc4[C@H]3[C@@H](OC)C[C@@]21C`: 280 °C. `CN(C)N=O`: the boiling point turned out to be 154 °C, the log10 vapour pressure (mmHg) worked out at 0.431 and the ready biodegradability entry is “not readily biodegradable”. `COc1ccc(C(=O)OC(=O)c2ccc(OC)cc2)cc1`: the melting point came to 94.5 °C. In the case of `ClC(Cl)C(Cl)(Cl)C(Cl)(Cl)Cl`, the boiling point amounted to 248 °C and the melting point is 29.4 °C.

On to `Cc1cccc2c1cc(C)c1cccc(C)c12`, for which the log10 biodegradation half-life (days) was 1.92. Consider `CCN(CC)c1ccc(/N=N/c2ccccc2)cc1`, for which the log10 vapour pressure (mmHg) was -7.07 and the melting point is 97.5 °C. Turning to `CCCC(C)I` (configuration not stated), the boiling point is 150 °C, the log10 vapour pressure (mmHg) is 1.04 and the melting point is -50 °C. For `O=C(CS)Nc1ccc2ccccc2c1`, the melting point stood at 112 °C. The same measure, in the same setting: to `S=C=Nc1ccc(Br)cc1` belongs 60.5 °C; to `Nc1ccnc2ccccc12`, 155 °C. In the case of `C=C(C)C(=O)OCCN(CC)CC`, the ready biodegradability result is recorded as “readily biodegradable”. For the compound `ClC1=C(Cl)C(Cl)(Cl)C(Cl)(Cl)C1(Cl)Cl`, the boiling point is 283 °C and the melting point amounted to 40 °C. On to `CC(=O)c1cc(Cl)ccc1Cl`, for which the melting point was found to be 12 °C. Regarding `Cc1nnc(-c2ccccc2)c(=O)n1N`, the log10 Koc (L/kg) is 2.17 and the log10 vapour pressure (mmHg) is -8.19.

Compound `CN1C2CCC1CC(OC(=O)c1ccccc1)C2` (configuration not stated) came in with a melting point of 49 °C. Still for that read-out and setting: the same measure for `CC(C)(OC1CCCCC1)C(=O)O`: 75 °C. In turn, `CCC1CCCC1` showed a boiling point of 104 °C, a log10 biodegradation half-life (days) of 1.18, a log10 vapour pressure (mmHg) of 1.6 and a melting point of -138 °C. For the compound `CCI`, the boiling point is 72.5 °C, the log10 Koa worked out at 2.59, the log10 vapour pressure (mmHg) was 2.13 and the melting point is -111 °C. For `Cc1cn[nH]c1`, the boiling point amounted to 206 °C.

With `FC(F)(F)C(Cl)=C(Cl)C(F)(F)F`, the boiling point was 68.5 °C and the melting point is -67.3 °C.

Still in this data set, the particulars now being: fish.
On to `CCOP(=S)(OCC)Oc1ccc(=O)n(-c2ccccc2)n1`, for which the log10 BCF was 0.67 and the log10 biotransformation half-life (days) was -0.7. On to `Clc1ccc2c(oc3c(Cl)c(Cl)c(Cl)c(Cl)c32)c1Cl`, for which the log10 BCF was found to be 2.78 and the log10 biotransformation half-life (days) was 0.43.

`Clc1cc(Cl)c(-c2cc(Cl)c(Cl)c(Cl)c2Cl)c(Cl)c1` had a log10 biotransformation half-life (days) of 2.51.
